Molecular target: T1, YjdL (Escherichia coli, UniProt P39276)
T1 construct: gene dtpC; pET28a-YjdL, His-tag vector, overexpressed in whole E. coli BL21-CodonPlus (DE3)-RIPL cells
T1 sequence (P39276 1-485): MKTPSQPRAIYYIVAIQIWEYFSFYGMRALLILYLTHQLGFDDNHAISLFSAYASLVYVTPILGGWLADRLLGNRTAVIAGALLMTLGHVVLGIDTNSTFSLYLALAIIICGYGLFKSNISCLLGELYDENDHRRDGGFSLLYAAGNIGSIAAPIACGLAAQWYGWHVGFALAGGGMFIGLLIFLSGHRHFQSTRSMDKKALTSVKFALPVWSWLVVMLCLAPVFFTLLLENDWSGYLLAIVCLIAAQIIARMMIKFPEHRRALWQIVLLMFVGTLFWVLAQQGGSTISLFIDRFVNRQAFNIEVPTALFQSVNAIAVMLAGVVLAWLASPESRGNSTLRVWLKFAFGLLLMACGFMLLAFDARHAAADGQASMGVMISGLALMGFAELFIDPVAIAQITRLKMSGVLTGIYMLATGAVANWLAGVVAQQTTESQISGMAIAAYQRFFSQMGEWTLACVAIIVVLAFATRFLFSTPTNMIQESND
Assay: fluorescent dipeptide uptake in E. coli expressing the protein
Assay type: cell-based
Details: pH 6.5, 37 °C, 15-20 min; printed final 500 μM (1.5 μl of 20 mM in 100 μl); labelled compound

Cc1c(CC(=O)NCCCC[C@H](NC(=O)CCN)C(=O)O)c(=O)oc2cc(N)ccc12 [β-Ala-Lys-AMCA]
fluorescent dipeptide uptake in E. coli expressing the protein: Relative uptake of fluorescent dipeptide β-ALA-Lys-AMCA in E. coli induced (+IPTG)

Source: paper PMC6333907, “Oligopeptide Signaling through TbGPR89 Drives Trypanosome Quorum Sensing” (Cell, 2019)
